Data as given in patent US4386103A, “Dichloroamino acid derivatives useful as potent germicidal and fungicidal agents” (Merck & Co., Inc., priority 1981, dated 1983).

Tests used:
Type in all cases: cell-based
Bacillus subtilis = experiment: Contact germicidal screen, Bacillus subtilis ATCC No. 60511
Protocol: (§1) The organisms used in the contact germicidal screen are all maintained as stock cultures on nutrient agar […] 4° C. They are transferred and biochemically diagnosed monthly. The five organisms used are: The media used are: […] Overnight cultures of the test organisms are grown in tryptose phosphate broth. After 15-16 hours, the cultures are centrifuged at […] for 15 minutes, and the supernatant replaced with fresh warm (37° C.) media. After two hours of incubation, the absorbance of the culture at 650 nm is determined and diluted with nutrient broth to 1×10^7 colony forming units per ml (using a previous determined standard curve: colony forming units/ml vs. absorbance at 650). The diluted cultures are maintained at 4°-8° C. throughout the screen. The compounds are weighed into sterile 100 ml volumetric flasks, and immediately before screening dissolved in one of the following buffers: 0.1 M NaOAc pH 4.6 or 0.1 M NaH2 PO4 pH 7.0. If solubility poses a problem, 10-30% methanol is used to effect solution. Two denaturing agents are also tested: […] Horse Serum restored with 100 ml distilled water and 10% Trition×100. When used, 2.5 ml of the denaturing agent is mixed with 2.5 ml of double strength test solution thirty minutes before the bacterial suspension is added. The screen is initiated when 0.2 ml of the bacterial suspension is added to 5.0 ml of the test solution contained in a sterile 25 ml glass stoppered flask. At intervals of 0.5, 2.5, 5.0, 10.0 and 15.0 minutes, a loopful of the inoculated test solution is subcultured into 5 ml of sterile nutrient broth and mixed with a vortex, the high dilution serving to stop the action of the compound. All of the subculture tubes are incubated at 37° C. and checked for signs of growth by turbidity at 1, 3, 5 and 7 days. The earliest subculture time at which no growth is present is considered the endpoint and is recorded as the sterilization time. An aliquot of 0.2 ml of the diluted culture is transferred to 5 ml of buffer to simulate 0.2 ml in 5 ml of test solution. (a) Purity: A loopful of the inoculated buffer is streaked onto nutrient agar to check colony morphology and lack of contaminants. (b) Viability: A loopful of the inoculated buffer is subcultured to 5 ml of nutrient broth as in the screen and incubated at 37° C. for 24 hours. (c) Dilution of the Test Solution: A loopful of the test solution is transferred to a 5 ml tube of nutrient broth, and a loopful of the inoculated buffer is transferred to the same tube of broth. […] (d) Purity of Organisms in the Test Solution: After the 15 minute subculture, a loopful of the inoculated test solution is streaked onto nutrient agar to insure that contamination has not occurred during the screen. (e) lack of Bactericidal Activity of Buffers and Other Solvents: Before a buffer or other solvent is used as a diluent, it is screened against the five organisms to insure that the buffer or solvent has no antibacterial activity itself.

Candida albican = experiment: Contact fungicidal screen, Candida albican; conditions: 0.1M NaOAc pH 4.6
Protocol: The organisms used in the Contact Fungicidal Screen are a dermatophyte, trychophyton mentagrophytes, frequently associated with athlete's foot; a yeast, Candida albican, causative agent of thrush and vaginitis; a phycomycete, Rhizopus oryzae, commonly known as black bread mold; an ascomycete, Aspergillus fumagatis, found in chicken droppings and causing lung infections; and another dermatophyte, Microsporum canis, which causes ringworm. These organisms are maintained as stock cultures at 4° C. on agar slants of the following composition: dextrose 2%, Neopeptone (Difco) 1%, agar 2%. Fluid medium of the same nutrient composition (without agar) was used to test the viability of the organisms after exposure to the fungicide. This medium is also known as Sabouraud's medium.
The Candida albican is grown in Sabouraud's liquid medium at 25°-30° C. for three days. At the end of the incubation period the cell suspension is centrifuged at 200 G and washed with sterile physiological saline (0.85% NaCl). The density of the cell suspension is determined by counting in a hemacytometer. The suspension is stored a 4° C. until it is used, at which time it is diluted with sterile physiological saline to a density of 5×10^6 cells per ml.
The compounds are weighed into heat sterilized 100 ml volumetric flasks and immediately before screening dissolved in 0.1 M NaOAc pH 4.6 buffer (test solutions).
The Aspergillus, Candida, Microsporum and Rhizopus species are screened in a slightly different manner. Basically, the procedure for the Contact Germicidal Efficiency Screen is utilized. After the test solutions are made up, 5 ml aliquots are pipetted into heat sterilized 25 ml glass stoppered erlenmeyer flasks. The screen is initiated when 0.5 ml of the 5×10^6 cell (spore) per ml suspension is added to the flask containing 5 ml of the test solution. At intervals of 0.5, 2.5, 5.0, 10.0 and 15.0 minutes, a 4 mm loopful of the inoculated test solution is subcultured into 7 mL of sterile fluid Sabouraud's medium and mixed on a vortex, the high dilution serving to stop the action of the compound. The subculture tubes are incubated at 25°-30° C. for ten days with daily observation for mycelial growth. The earliest subculture time at which no growth is present is considered the endpoint and is recorded as the sterilization time.
To insure the viability of the culture, a 0.5 ml aliquot of the 5×10^6 cells (spores) per ml suspension is transferred to 5 ml of the pH 4.6 buffer. A loopful of the inoculated buffer is then subcultured to 7 ml of fluid Sabouraud's medium and incubated at 25°-30° C. for ten days. To insure that the dilution of the test solution into the subculture medium does stop the action, a loopful of the test solution and a loopful of the inoculated buffer are transferred into the same subculture tube. This tube is also incubated at 25°-30° C. for ten days.

Pseudamonas aeruginosa = experiment: Contact germicidal screen, Pseudamonas aeruginosa ATCC No. 14502
Protocol: as §1

[1] = 10.0+ PPM, 0.1M NaOAc pH 4.6, screened simultaneously with four other compounds
[2] = 300 PPM with 50% Horse Serum, 0.1M NaOAc pH 4.6
[3] = 300 PPM with 50% Triton X100, 0.1M NaOAc pH 4.6
[4] = 308.0 PPM, Triton X100 (10% solution):pH 4.6 buffer 1:1
[5] = 308.0 PPM, horse serum:pH 4.6 buffer 1:1
[6] = 1000 PPM with 50% Horse Serum, 0.1M NaOAc pH 4.6
[7] = 1000.0 PPM, horse serum:pH 4.6 buffer 1:1
[8] = 1012.3 PPM, 0.1M NaH2PO4 pH 7.0
[9] = 338.7 PPM, horse serum:pH 4.6 buffer 1:1
[10] = 1024.0 PPM, horse serum:pH 4.6 buffer 1:1
[11] = 1070.3 PPM, 0.1M NaH2PO4 pH 7.0

SMILES	Sterilization Time (Bacillus subtilis; [1]) [min]	Sterilization Time (summary) (Bacillus subtilis; 10 PPM, 0.1M NaOAc pH 4.6) [min]	Sterilization Time (summary) (Bacillus subtilis; 100 PPM, 0.1M NaOAc pH 4.6) [min]	Sterilization Time (summary) (Bacillus subtilis; [2]) [min]	Sterilization Time (summary) (Bacillus subtilis; [3]) [min]	Sterilization Time (Bacillus subtilis; [4]) [min]	Sterilization Time (summary) (Bacillus subtilis; [6]) [min]	Sterilization Time (summary) (Bacillus subtilis; 1000 PPM, 0.1M NaOAc pH 4.6) [min]	Sterilization Time (Candida albican; 10 PPM) [min]	Sterilization Time (Candida albican; 100 PPM) [min]	Sterilization Time (Candida albican; 1000 PPM) [min]	Sterilization Time (Pseudamonas aeruginosa; [1]) [min]	Sterilization Time (summary) (Pseudamonas aeruginosa; 10 PPM, 0.1M NaOAc pH 4.6) [min]	Sterilization Time (summary) (Pseudamonas aeruginosa; 100 PPM, 0.1M NaOAc pH 4.6) [min]	Sterilization Time (summary) (Pseudamonas aeruginosa; [2]) [min]	Sterilization Time (summary) (Pseudamonas aeruginosa; [3]) [min]	Sterilization Time (Pseudamonas aeruginosa; [4]) [min]	Sterilization Time (summary) (Pseudamonas aeruginosa; [6]) [min]	Sterilization Time (summary) (Pseudamonas aeruginosa; 1000 PPM, 0.1M NaOAc pH 4.6) [min]	also measured
CC(C)(CCC(=O)O)N(Cl)Cl [(III), 4-Dichloroamino-4-methylvaleric acid]	2.5	2.5	0.5	2.5	0.5	0.5	0.5	0.5	15	15	0.5	2.5	2.5	0.5	15	2.5	2.5	5.0	0.5	Sterilization Time (Bacillus subtilis; 9.6 PPM, 0.1M NaOAc pH 4.6): 2.5 min; Sterilization Time (Bacillus subtilis; 9.7 PPM, 0.1M NaH2PO4 pH 7.0): 15 min; Sterilization Time (Bacillus subtilis; 102.2 PPM, 0.1M NaOAc pH 4.6): 0.5 min; Sterilization Time (Bacillus subtilis; 103.5 PPM, 0.1M NaH2PO4 pH 7.0): 10.0 min; Sterilization Time (Bacillus subtilis; [5]): 2.5 min; Sterilization Time (Bacillus subtilis; [7]): 0.5 min; Sterilization Time (Bacillus subtilis; 1007.7 PPM, 0.1M NaOAc pH 4.6): 0.5 min; Sterilization Time (Bacillus subtilis; [8]): 2.5 min; Sterilization Time (Pseudamonas aeruginosa; 9.6 PPM, 0.1M NaOAc pH 4.6): 5.0 min; Sterilization Time (Pseudamonas aeruginosa; 9.7 PPM, 0.1M NaH2PO4 pH 7.0): 15 min; Sterilization Time (Pseudamonas aeruginosa; 102.2 PPM, 0.1M NaOAc pH 4.6): 0.5 min; Sterilization Time (Pseudamonas aeruginosa; 103.5 PPM, 0.1M NaH2PO4 pH 7.0): 15 min; Sterilization Time (Pseudamonas aeruginosa; [5]): 15 min; Sterilization Time (Pseudamonas aeruginosa; [7]): 5.0 min; Sterilization Time (Pseudamonas aeruginosa; 1007.7 PPM, 0.1M NaOAc pH 4.6): 0.5 min; Sterilization Time (Pseudamonas aeruginosa; [8]): 5.0 min
CC(C)(COC(=O)CCC(=O)O)N(Cl)Cl [(IV), 2-Dichloroamino-2-methylpropylhemisuccinate]	2.5	2.5	2.5	5.0	0.5	0.5	0.5	0.5	15	15	2.5	5.0	5.0	2.5	15	2.5	2.5	10.0	0.5	Sterilization Time (Bacillus subtilis; 8.6 PPM, 0.1M NaOAc pH 4.6): 5.0 min; Sterilization Time (Bacillus subtilis; 9.8 PPM, 0.1M NaH2PO4 pH 7.0): 15 min; Sterilization Time (Bacillus subtilis; 106.2 PPM, 0.1M NaOAc pH 4.6): 2.5 min; Sterilization Time (Bacillus subtilis; 149.7 PPM, 0.1M NaH2PO4 pH 7.0): 10.0 min; Sterilization Time (Bacillus subtilis; [9]): 5.0 min; Sterilization Time (Bacillus subtilis; 1008.0 PPM, 0.1M NaOAc pH 4.6): 0.5 min; Sterilization Time (Bacillus subtilis; [10]): 0.5 min; Sterilization Time (Bacillus subtilis; [11]): 2.5 min; Sterilization Time (Pseudamonas aeruginosa; 8.6 PPM, 0.1M NaOAc pH 4.6): 10.0 min; Sterilization Time (Pseudamonas aeruginosa; 9.8 PPM, 0.1M NaH2PO4 pH 7.0): 15 min; Sterilization Time (Pseudamonas aeruginosa; 106.2 PPM, 0.1M NaOAc pH 4.6): 2.5 min; Sterilization Time (Pseudamonas aeruginosa; 149.7 PPM, 0.1M NaH2PO4 pH 7.0): 15 min; Sterilization Time (Pseudamonas aeruginosa; [9]): 15 min; Sterilization Time (Pseudamonas aeruginosa; 1008.0 PPM, 0.1M NaOAc pH 4.6): 0.5 min; Sterilization Time (Pseudamonas aeruginosa; [10]): 10.0 min; Sterilization Time (Pseudamonas aeruginosa; [11]): 15 min
